Non-standard residues stand in square brackets, D forms with d. Residues, ends and D or L forms follow the SMILES beside them. *: point of attachment. Nle = CCCC[C@H](N)C(=O)O; Cbz = O=C(OCc1ccccc1)*
Columns and labels:
[1] = tested on: secondary hyperparathyroidism; test: Secondary hyperparathyroidism, calcium-deficient diet model; type: in vivo, male Wistar rats; settings: 40 mg/kg oral after 5 days calcium-deficient diet; blood 5 hours after administration
Procedure: In a calcium-deficient diet model system of rats, parathyroid hormone is released in order to maintain the blood calcium concentration within a normal range. In other words, the parathyroid hormone induces bone resorption so that the blood calcium concentration is maintained within a normal range.
Taking advantage of the above-mentioned model system, male Wistar rats aged 5 weeks (70 - 90 g, 5 animals in each group) were fed on calcium-deficient diet for 5 days. After fasting overnight, 40 mg/kg body weight of the compounds listed in Table 1 were orally administered to the rats. 5 hours after the administration of the drugs, the blood calcium concentration of each animal was determined by the same method as the one employed in Example 1.

[2] = tested on: rat hypercalcemia induced by PTHrp(1-34); test: Rat hypercalcemia induced by PTHrp(1-34), intraperitoneal administration; type: in vivo, male Wistar rats; settings: 10 mg/kg intraperitoneal; for Ca conc. ± standard error: blood 1 hour after PTHrp, n = 5
Procedure: To male Wistar rats aged 5 weeks (70 - 90 g, 5 animals in each group), 10 mg/kg body weight of Compound 1 was intraperitoneally administered 0.5, 1, 2 and 4 hours before the administration of PTHrp(1-34). PTHrp(1-34) was intravenously injected into the animals at the level of 5 nmole/kg. One hour after the administration of PTHrp(1-34), a blood sample was collected from each animal and the blood calcium concentration was determined by the same method as the one employed in Example 1.

[3] = Acute toxicity, intraperitoneal; type: in vivo; settings: 2 g/kg intraperitoneally, rats
[4] = tested on: rat hypercalcemia induced by PTHrp(1-34); test: Rat hypercalcemia induced by PTHrp(1-34), oral administration; type: in vivo, male Wistar rats; settings: 4 hours before PTHrp(1-34) 5 nmole/kg i.v., blood 1 hour after PTHrp, n = 5
Procedure: To male Wistar rats aged 5 weeks (70 - 90 g, 5 animals in each group), 40 mg/kg body weight of the compounds listed in Table 2 and 40 and 80 mg/kg body weight of the compounds listed in Table 3 were orally administered. After 4 hours, 5 nmole/kg of PTHrp(1-34) was intravenously injected into the animals.
One hour after the administration of PTHrp(1-34), a blood sample was collected from each rat and the blood calcium concentration was determined by the octocresolphthalein complexone method.

SMILES	blood calcium concentration (result in words) [1]	Ca conc. ± standard error ([4]; 40 mg/kg oral) [mg/dL]	Ca conc. ± standard error ([4]; 80 mg/kg oral) [mg/dL]	further results
CCCCC(C=O)NC(=O)C(CC(C)C)NC(=O)OCC(Cl)(Cl)Cl (centres unmarked) [Compound 11]	significantly reduced	–	–	–
CCCCC(C=O)NC(=O)C(CC(C)C)NC(=O)OC(C)(C)C (centres unmarked) [Compound 6]	significantly reduced	–	–	–
CCCC[C@@H](C=O)NC(=O)[C@H](CC(C)C)NC(=O)OCc1ccccc1 [Compound 1, N-benzyloxycarbonyl-leucyl-norleucinal]	–	–	–	suppression of the increase in the blood calcium concentration (result in words) ([2]; 0.5 to 4 hours before PTHrp(1-34)): continuously effected significant suppression; Ca conc. ± standard error ([2]; 0.5 hr before PTHrp(1-34)): 11.74 ± 0.07 mg/dL; Ca conc. ± standard error ([2]; 1 hr before PTHrp(1-34)): 11.28 ± 0.07 mg/dL; Ca conc. ± standard error ([2]; 2 hr before PTHrp(1-34)): 11.56 ± 0.09 mg/dL; Ca conc. ± standard error ([2]; 4 hr before PTHrp(1-34)): 11.91 ± 0.09 mg/dL; acute toxicity (general conditions, mortality) [3]: neither any change in the general conditions of the animals nor any mortal case was observed
CCCCC(C=O)NC(=O)C(CC(C)C)NP(=S)(c1ccccc1)c1ccccc1 (centres unmarked) [Compound 15]	significantly reduced	–	–	–
CCCCC(C=O)NC(=O)C(CC(C)C)NC(=O)OCc1ccc(OC)cc1 (centres unmarked) [Compound 9]	significantly reduced	–	–	–
CCCCC(C=O)NC(=O)C(CC(C)C)NC(=O)OCc1ccc(Cl)cc1 (centres unmarked) [Compound 8]	significantly reduced	–	–	–
CCCC[C@@H](C=O)NC(=O)[C@H](CC(C)C)NC(=O)[C@H](CC(C)C)NC(C)=O [Compound 22, N-Acetyl-leucyl-leucyl-norleucinal] (Ac-Leu-Leu-[Nle]-aldehyde)	–	9.49 ± 0.20	9.52 ± 0.11	–
CSCC[C@@H](C=O)NC(=O)[C@H](CC(C)C)NC(=O)[C@H](CC(C)C)NC(C)=O [Compound 21, N-Acetyl-leucyl-leucyl-methioninal] (Ac-Leu-Leu-Met-aldehyde)	–	9.78 ± 0.08	9.61 ± 0.13	–
CCCC[C@@H](C=O)NC(=O)[C@H](CC(C)C)NC(=O)[C@H](CC(C)C)NC(=O)OCc1ccccc1 [Compound 23, N-Benzyloxycarbonyl-leucyl-leucyl-norleucinal] (Cbz-Leu-Leu-[Nle]-aldehyde)	–	9.53 ± 0.08	9.28 ± 0.66	–
CCCCC(C=O)NC(=O)C(CC(C)C)NC(=O)CCCc1ccccc1 (centres unmarked) [Compound 2]	significantly reduced	–	–	–
CC(C)CC(NC(=O)C1OC1C(=O)O)C(=O)NCCCCNC(=N)N [Compound E-64, L-trans-epoxysuccinyl-L-leucineamide-(e-guanide)-butane, reference compound]	–	9.69 ± 0.21	9.61 ± 0.12	–
